Where “and” joins values, the source holds several entries; their conditions need not be identical. Equal entries are not always repeated.

Our source for the binary diffusion coefficient values is the NIST ThermoML archive (doi:10.1016/j.fluid.2010.03.010).

The series is described as follows: xn = mol fraction of the nth substance listed. As to conditions: 298.03 K, 101.3 kPa, Liquid, Taylor dispersion method.

For `CCCC[n+]1ccn(C)c1.O=S(=O)([N-]S(=O)(=O)C(F)(F)F)C(F)(F)F` + O, the binary diffusion coefficient (x2 = 0) was 4e-08 m2/s [middle of 4 runs].

For `CCCCn1cc[n+](C)c1.N#CN=C=[N-]` [1-butyl-3-methylimidazolium dicyanamide] + O, the binary diffusion coefficient (x2 = 0) was 2.08e-08 m2/s and 2.13e-08 m2/s and 2.11e-08 m2/s and 2.03e-08 m2/s and 1.98e-08 m2/s and 2.05e-08 m2/s and 2e-08 m2/s and 2.28e-08 m2/s.

As for `CCOS(=O)(=O)[O-].CCn1cc[n+](C)c1` [1-ethyl-3-methylimidazolium ethyl sulfate] + O, the binary diffusion coefficient (x1 = 0) was 9.62e-08 m2/s and 9.15e-08 m2/s and 9.84e-08 m2/s and 9.79e-08 m2/s.
